In patent US11014902B2, “MYC G-quadruplex stabilizing small molecules and their use” (The United States of America, as represented by the …, priority 2015, dated 2021):

Assays:
[1] = test system: c-MYC exon 2 transcription in CA46 cells; test: Exon specific qPCR assay, exon 2; assay type: cell-based, human; settings: 10 μM, up to 48 hours
Source text: To confirm a G4 specific mechanism of action in cells, the CA46 Burkitt's Lymphoma line was used in an exon-specific assay, as previously reported (Boddupally, et al., J Med Chem 2012, 55, 6076). For most cell lines, 85-90% of c-Myc expression is controlled by the G4 located prior to exons 1 and 2 in the promoter. Furthermore, expression predominantly occurs following exon 2, due to a thousand-fold increase in transcription from this allele (Brown, et al., J Biol Chem 2011, 286, 41018). The CA46 Burkitt's Lymphoma cell line is an exception to this trend due to the existence of a chromosome (8:14) (Pelicci, et al., Proc Natl Acad Sci USA 1986, 83, 2984) translocation between exons 1 and 2, leaving exon 1 under G4 control. As a result, c-Myc expression from exon 2 is G4 independent (FIG. 3B). This renders the overall cell line resistant to G4-mediated c-Myc inhibition at the RNA and protein level, and proliferation should be uninhibited by G4-stabilizing agents.
CA46 cells were treated with ligands of interest or DMSO control at designated time points, washed in PBS, flash frozen, and RNA isolated using the Qiagen RNeasy Kit. RNA was quantified by NanoDrop, and 0.5 μg was reverse transcribed for use in qPCR. […]

[2] = test system: peripheral blood mononucleocytes; test: Viability of peripheral blood mononucleocytes; assay type: cell-based; settings: healthy volunteer cells; doses 25% higher than for cell treatments
Description: Since two thirds of multiple myeloma cases involve deregulated c-MYC expression (Kuehl and Bergsagel, Blood 2012, 120, 2351; Shou, et al., Proc Natl Acad Sci USA 2000, 97, 228), we elected to evaluate the cell viability effects of Compound 1 in a multiple myeloma model. […] This suppression was maintained over 72 hours, which is notable given the characteristic rapid replenishment of the protein—a phenomenon that complicates targeting c-Myc at the protein level (FIG. 4C). This effect was maintained across a genetically diverse set of 4 multiple myeloma lines. We observed decreases in c-MYC translation in all lines tested, and this effect also correlated with decreases in viability (FIG. 4D).

L363 cells = test: Cell cycle analysis (propidium iodide staining); assay type: cell-based, human; settings: 10 μM, after 72 hours
Description: To further explore the mechanism of action for the anticancer activity of Compound 1, cell cycle analysis was performed and monitored for potential induction of apoptotic death. […] Additionally, minimal increases in apoptosis were observed, by Annexin V/7-AAD staining and FACS analysis; only 13% of the cells were undergoing apoptosis (FIG. 5B).

[3] = Stability study in culture media (LC/MS); assay type: physicochemical; settings: RPMI-1640, LC/MS, up to 72 h
Source text: Having established the reversible binding of Compound 1 to quadruplex DNA and selective quadruplex-dependent silencing of c-Myc, one consideration that remained was the presence of a benzylaminophenol functional group in Compound 1. It has previously been reported that compounds containing this functional group can have the propensity to eject amines, form an o-quinone methide, and alkylate proteins (Weinert, et al., J Am Chem Soc 2006, 128, 11940; Herzig, et al., J Org Chem 2006, 71, 4130; McLean, et al., Bioorg Med Chem Lett 2009, 19, 6717). To assess whether Compound 1 was undergoing this reactivity, a small series of analogs was prepared. In FIG. 6C, compounds lacking the phenol or amino group were prepared and evaluated. […] Additionally, the stability of Compound 1 was evaluated (see FIG. 7). […] Additionally, the putative hydrolysis products arising from quinone methide formation were not observed at any time by LC/MS.
Compound 1 (10 μL of 1 mM DMSO solution) was added to 490 μL RPMI-1640 culture media. After 1 min, 25 h, 48 h, and 72 h, 100 μL of this solution was diluted into 100 μL acetonitrile. The mixture was centrifuged at 5500 rpm for 1 min and the supernatant was removed from the pellet. […]
Compound 1 (10 μL of 1 mM DMSO solution) was added to 490 μL RPMI-1640 culture media. […] The mass corresponding to Compound 1 (M+H^+=393) was extracted and the chromatogram evaluated. […]

Cc1ccc(NC(=O)c2c(C)oc3ccc(O)c(CN4CCCCCC4)c23)cc1 [Compound 1]
transcription from exon 2 [1]: unaffected
viability [2]: did not alter viability
treated cells arrested in the G1 phase (L363 cells): ~85%
stability in culture media [3]: persisted in culture media over a period of 72 h
